Test results as given in PubChem BioAssay (NCI).
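Tested at 5 concentrations; 48 h exposure; 96-well plates; endpoints linearly interpolated, else capped at highest concentration. At the GI50, growth is halved. The concentration for full growth arrest is given as TGI.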

Key:
Assay in all cases: NCI anticancer screen, dose series, 48 h
[1] = test system: KM12 colon
[2] = test system: A498 renal
[3] = test system: RPMI-8226 leukemia
[4] = test system: IGROV1 ovarian
[5] = test system: SNB-19 CNS
[6] = test system: M14 melanoma
[7] = test system: EKVX NSCLC
[8] = test system: ACHN renal
[9] = test system: DU-145 prostate
[10] = test system: OVCAR-3 ovarian
[11] = test system: MDA-N

For `c1ccc(CCN2CCc3[nH]c4ccccc4c3C2)cc1`, the TGI [1] was 34.9 µM, the TGI [2] was 33.3 µM and the TGI [3] was over 10 µM. For the same compound, the TGI [4] was 67.8 µM, the TGI [5] was 41.8 µM and the TGI [6] was 34 µM. It also gave a TGI [7] of over 100 µM, a TGI [8] of 96.7 µM and a TGI [9] of over 100 µM.
`C=C(CCC(C)C1CCC2C3=C(C(=O)CC21C)C1(C)CCC(=O)[C@@H](C)C1CC3=O)C(C)C(=O)O` (stereo partly drawn) showed a TGI [1] of over 100 µM, a TGI [2] of over 100 µM and a TGI [4] of over 100 µM. The TGI [5] was over 100 µM, the TGI [6] was over 100 µM and the TGI [7] was over 100 µM. It also gave a TGI [8] of 88.6 µM, a TGI [9] of over 100 µM and a TGI [10] of over 100 µM.
`Nc1nc(-c2ccccc2N=NN2CCCC2)nc2ccccc12` was tested, and the TGI [1] was 7.36 µM, the TGI [2] was 20.2 µM and the TGI [3] was 6.46 µM. For the same compound, the TGI [4] was 17.3 µM, the TGI [5] was 16.5 µM and the TGI [6] was 12.5 µM. For the same compound, the TGI [7] was 23.8 µM, the TGI [8] was 11.7 µM and the TGI [9] was 16.5 µM. The TGI [10] was 4.35 µM.
`O=C1CCC2(CCO1)OCCO2` showed a TGI [11] of over 100 µM, a TGI [1] of over 100 µM and a TGI [4] of over 100 µM. For the same compound, the TGI [5] was over 100 µM, the TGI [6] was over 100 µM and the TGI [7] was over 100 µM. It also gave a TGI [8] of over 100 µM, a TGI [9] of over 100 µM and a TGI [10] of over 100 µM.
For `CC12N=NN(c3ccc([N+](=O)[O-])cc3)C1(O)c1ccccc1C2=O` (stereo not drawn), the TGI [1] was over 100 µM, the TGI [3] was over 100 µM and the TGI [4] was over 100 µM. For the same compound, the TGI [5] was over 100 µM, the TGI [6] was over 100 µM and the TGI [7] was over 100 µM. For the same compound, the TGI [8] was over 100 µM and the TGI [10] was over 100 µM.
In the case of `Clc1ccc(N2N=C(c3cccc(Nc4ccncc4)c3)CC2c2ccc3c(c2)OCO3)cc1` (stereo not drawn), the GI50 [1] is reported as 1.67 µM, the TGI [1] is reported as 3.18 µM and the GI50 [4] is reported as 1.73 µM. It also gave a TGI [4] of 3.67 µM, a GI50 [5] of 1.94 µM and a TGI [5] of 4.51 µM. It also gave a GI50 [7] of 2.9 µM, a TGI [7] of 13.3 µM and a GI50 [8] of 1.65 µM. For the same compound, the TGI [8] was 3.13 µM, the GI50 [9] was 1.84 µM and the TGI [9] was 3.39 µM. The GI50 [10] was 1.63 µM and the TGI [10] was 3.07 µM.
`CC(=O)Nc1ccc(C(=O)NN2C(=O)C(Cl)C2c2ccc([N+](=O)[O-])cc2)cc1` (stereo not drawn) showed a TGI [2] of over 100 µM, a TGI [4] of over 100 µM and a TGI [5] of over 100 µM. The TGI [6] was over 100 µM, the TGI [7] was over 100 µM and the TGI [8] was over 100 µM. The TGI [10] was over 100 µM.
`COC1OC(Cc2nnc(C)o2)C(OCc2ccccc2)C(OCc2ccccc2)C1OCc1ccccc1` (stereo not drawn) was tested, and the TGI [1] was 42.3 µM, the TGI [2] was over 100 µM and the TGI [3] was over 100 µM. The TGI [4] was 52.4 µM, the TGI [5] was over 100 µM and the TGI [6] was over 100 µM. It also gave a TGI [7] of 35.5 µM, a TGI [8] of 76.8 µM and a TGI [9] of over 100 µM. The TGI [10] was 60.6 µM.
`O=C(CSCC(=O)N/N=C/c1cccs1)N/N=C/c1cccs1` showed a TGI [1] of over 100 µM, a TGI [2] of over 100 µM and a TGI [3] of over 100 µM. For the same compound, the TGI [4] was over 100 µM, the TGI [5] was over 100 µM and the TGI [6] was over 100 µM. The TGI [7] was over 100 µM, the TGI [8] was over 100 µM and the TGI [9] was over 100 µM. It also gave a TGI [10] of over 100 µM.
Compound `Nc1cccc2c1C(=O)c1cccc(N)c1C2=O` has a TGI [1] of over 100 µM, a TGI [2] of over 100 µM and a TGI [3] of over 100 µM. It also gave a TGI [4] of over 100 µM, a TGI [5] of over 100 µM and a TGI [6] of over 100 µM. The TGI [7] was over 100 µM, the TGI [8] was over 100 µM and the TGI [10] was over 100 µM.
Work on `Cc1ccc(S(=O)(=O)NNC(=O)c2cc(C)ccc2NC(=O)C23CC4CC(CC(C4)C2)C3)cc1` yielded a TGI [11] of over 100 µM, a TGI [1] of over 100 µM and a TGI [3] of over 100 µM. The TGI [4] was 30.6 µM, the TGI [5] was 57.2 µM and the TGI [6] was over 100 µM. It also gave a TGI [7] of over 100 µM, a TGI [8] of 44.1 µM and a TGI [9] of over 100 µM. The TGI [10] was over 100 µM.
Compound `Nc1ncnc2c1ncn2C1CCC(COS(N)(=O)=O)C1` (stereo not drawn) has a TGI [11] of over 100 µM, a TGI [1] of over 100 µM and a TGI [3] of over 100 µM. The TGI [4] was over 100 µM, the TGI [5] was over 100 µM and the TGI [6] was over 100 µM. It also gave a TGI [7] of over 100 µM, a TGI [8] of over 100 µM and a TGI [9] of over 100 µM. It also gave a TGI [10] of over 100 µM.
Work on `O=[N+]([O-])c1ccc(S[C@@H]2[C@H]3c4c(-c5ccccc5)[nH]c(-c5ccccc5)c4[C@@H]2C[C@H]3Cl)cc1` yielded a TGI [11] of 18.6 µM, a TGI [1] of 12.3 µM and a TGI [2] of 89 µM. For the same compound, the TGI [4] was over 100 µM, the TGI [5] was over 100 µM and the TGI [6] was over 100 µM. The TGI [8] was over 100 µM, the TGI [9] was 17.3 µM and the TGI [10] was 35.8 µM.
Work on `O=C(NCc1cccc(C(F)(F)F)c1)c1cc2sccc2nc1C(F)(F)F` yielded a TGI [11] of over 100 µM, a TGI [1] of over 100 µM and a TGI [3] of over 100 µM. For the same compound, the TGI [4] was over 100 µM, the TGI [5] was over 100 µM and the TGI [6] was over 100 µM. For the same compound, the TGI [7] was over 100 µM, the TGI [8] was over 100 µM and the TGI [10] was over 100 µM.
For `Cc1cc(=O)n2nc(SCc3ccccc3)sc2n1`, the TGI [11] was over 100 µM, the TGI [1] was over 100 µM and the TGI [2] was over 100 µM. It also gave a TGI [3] of over 100 µM, a TGI [4] of over 100 µM and a TGI [5] of over 100 µM. It also gave a TGI [6] of over 100 µM, a TGI [8] of 56.2 µM and a TGI [9] of over 100 µM. For the same compound, the TGI [10] was over 100 µM.
In the case of `O=[N+]([O-])c1c(Br)cc(Br)c2c1Nc1c(ccc(Cl)c1Cl)S2`, the TGI [1] is reported as 20.5 µM, the TGI [2] is reported as 39.1 µM and the TGI [3] is reported as over 100 µM. The TGI [4] was 31.2 µM, the TGI [5] was 35.1 µM and the TGI [6] was 23.6 µM. It also gave a TGI [7] of 30.9 µM, a TGI [8] of 30.7 µM and a TGI [9] of 27.3 µM. It also gave a TGI [10] of 9.5 µM.
